Measurements taken from patent US20150038435A1, “N-TERMINALLY MODIFIED OLIGOPEPTIDES AND USES THEREOF” (Novo Nordisk A/S, priority 2012, published 2015).
*: point of attachment. Lauroyl = CCCCCCCCCCCC(=O)*

How the values were obtained:
Chymotrypsin = assay: Inhibition of enzymatic degradation of a model GLP-1 (FRET substrate) by chymotrypsin; assay type: biochemical; settings: for EC50: read-out: EC50 Chymotrypsin (0.001 mg/ml), 0.001 mg/ml chymotrypsin, 37° C., ± standard error if at least 3 measurements
Method in brief: (§1)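 Initial-rate slopes of fluorescence rise (320 nm ex, 405 nm em), fitted over the linear early phase and averaged from duplicates, were plotted against inhibitor concentration and fitted logistically to give EC50. Reactions ran at 37° C in Dulbecco's PBS, with MCA/DNP GLP-1 FRET substrate added as 10 μl of 100 μM stock.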

Trypsin = assay: Inhibition of enzymatic degradation of a model GLP-1 (FRET substrate) by trypsin; assay type: biochemical
Method in brief: as §1

[1] = Hydrophobicity: retention time during reverse phase HPLC; assay type: physicochemical; settings: Acquity CSH C18; pH 7.2 buffer/CH3CN gradient; 40° C.
Excerpt: The retention time (RT) during reverse phase HPLC was taken as a measure of hydrophobicity of an N-terminally modified peptide or oligopeptide of the invention, where the connection is: The longer the RT, the more hydrophobic N-terminally modified peptide or oligopeptide. The following running conditions were applied during HPLC analysis:
Buffer B: 70% (v/v) aq. CH3CN

[2] = compound 0.1 mM, buffer containing 8% DMSO

For “N-dodecanoyl-Asn-Ala-Ala-Pro-Tyr-OH [Example 93]”, the “Slope of the initial increase in fluorescence obtained during incubation with 0.001 mg/ml Chymotrypsin” value (Chymotrypsin; [2]) was 0.14, the “Slope of the initial increase in fluorescence obtained during incubation with 0.001 mg/ml Trypsin” value (Trypsin; [2]) was 1.90 and the “RT (retention time during reverse phase HPLC as a measure of hydrophobicity)” value (from here on “RT”) [1] was 4.84 min.

With “N-dodecanoyl-Ala-Ala-Pro-Trp-OH (Lauroyl-AAPW-OH; SMILES CCCCCCCCCCCC(=O)N[C@@H](C)C(=O)N[C@@H](C)C(=O)N1CCC[C@H]1C(=O)N[C@@H](Cc1c[nH]c2ccccc12)C(=O)O) [Example 26]” the EC50 (Chymotrypsin) was 29 ± 2 µM, the EC50 (Trypsin; read-out: EC50 Trypsin (0.001 mg/ml), 0.001 mg/ml trypsin, 37° C.) was 413 µM and the “RT” value [1] was 7.03 min.

With “N-dodecanoyl-Ala-Ala-Val-Tyr-OH (Lauroyl-AAVY-OH; SMILES CCCCCCCCCCCC(=O)N[C@@H](C)C(=O)N[C@@H](C)C(=O)N[C@H](C(=O)N[C@@H](Cc1ccc(O)cc1)C(=O)O)C(C)C) [Example 72]” the “Slope of the initial increase in fluorescence obtained during incubation with 0.001 mg/ml Chymotrypsin” value (Chymotrypsin; [2]) was 1.18, the “Slope of the initial increase in fluorescence obtained during incubation with 0.001 mg/ml Trypsin” value (Trypsin; [2]) was 1.52 and the “RT” value [1] was 6.44 min.

In the case of “N-tetradecanoyl-Ala-Ala-Pro-DPhe-OH [Example 5]”, the “Slope of the initial increase in fluorescence obtained during incubation with 0.001 mg/ml Chymotrypsin” value (Chymotrypsin; compound 1 mM) is reported as 0.09, the EC50 (Chymotrypsin) is reported as 105 µM and the “Slope of the initial increase in fluorescence obtained during incubation with 0.001 mg/ml Trypsin” value (Trypsin; compound 1 mM) is reported as 0.35. For the same substance, the “RT” value [1] was 9.74 min.

With “N-dodecanoyl-Tyr-Pro-Tyr-OH [Example 110]” the “Slope of the initial increase in fluorescence obtained during incubation with 0.001 mg/ml Chymotrypsin” value (Chymotrypsin; [2]) was 0.35, the “Slope of the initial increase in fluorescence obtained during incubation with 0.001 mg/ml Trypsin” value (Trypsin; [2]) was 1.77 and the “RT” value [1] was 6.24 min.

In the case of “N-dodecanoyl-Ala-Val-Tyr-OH [Example 112]”, the “Slope of the initial increase in fluorescence obtained during incubation with 0.001 mg/ml Chymotrypsin” value (Chymotrypsin; [2]) is reported as 1.44, the “Slope of the initial increase in fluorescence obtained during incubation with 0.001 mg/ml Trypsin” value (Trypsin; [2]) is reported as 2.35 and the “RT” value [1] is reported as 6.6 min.

For “N-dodecanoyl-Met-Ala-Ala-Pro-Tyr-OH (Lauroyl-MAAPY-OH; SMILES CCCCCCCCCCCC(=O)N[C@@H](CCSC)C(=O)N[C@@H](C)C(=O)N[C@@H](C)C(=O)N1CCC[C@H]1C(=O)N[C@@H](Cc1ccc(O)cc1)C(=O)O) [Example 46]”, the “Slope of the initial increase in fluorescence obtained during incubation with 0.001 mg/ml Chymotrypsin” value (Chymotrypsin; [2]) was 0.09, the “Slope of the initial increase in fluorescence obtained during incubation with 0.001 mg/ml Trypsin” value (Trypsin; [2]) was 1.76 and the “RT” value [1] was 7.06 min.

For “N-dodecanoyl-Ala-Ala-His-Tyr-OH (Lauroyl-AAHY-OH; SMILES CCCCCCCCCCCC(=O)N[C@@H](C)C(=O)N[C@@H](C)C(=O)N[C@@H](Cc1c[nH]cn1)C(=O)N[C@@H](Cc1ccc(O)cc1)C(=O)O) [Example 64]”, the “Slope of the initial increase in fluorescence obtained during incubation with 0.001 mg/ml Chymotrypsin” value (Chymotrypsin; [2]) was 1.23, the “Slope of the initial increase in fluorescence obtained during incubation with 0.001 mg/ml Trypsin” value (Trypsin; [2]) was 2.23 and the “RT” value [1] was 5.33 min.

For “N-dodecanoyl-Ala-Lys-Pro-Tyr-OH (Lauroyl-AKPY-OH; SMILES CCCCCCCCCCCC(=O)N[C@@H](C)C(=O)N[C@@H](CCCCN)C(=O)N1CCC[C@H]1C(=O)N[C@@H](Cc1ccc(O)cc1)C(=O)O) [Example 82]”, the “Slope of the initial increase in fluorescence obtained during incubation with 0.001 mg/ml Chymotrypsin” value (Chymotrypsin; [2]) was 0.24, the “Slope of the initial increase in fluorescence obtained during incubation with 0.001 mg/ml Trypsin” value (Trypsin; [2]) was 1.50 and the “RT” value [1] was 5.07 min.

In the case of “N-dodecanoyl-Ala-Glu-Pro-Tyr-OH (Lauroyl-AEPY-OH; SMILES CCCCCCCCCCCC(=O)N[C@@H](C)C(=O)N[C@@H](CCC(=O)O)C(=O)N1CCC[C@H]1C(=O)N[C@@H](Cc1ccc(O)cc1)C(=O)O) [Example 77]”, the “Slope of the initial increase in fluorescence obtained during incubation with 0.001 mg/ml Chymotrypsin” value (Chymotrypsin; [2]) is reported as 1.56, the “Slope of the initial increase in fluorescence obtained during incubation with 0.001 mg/ml Trypsin” value (Trypsin; [2]) is reported as 1.55 and the “RT” value [1] is reported as 4.17 min.
